In ChEMBL document CHEMBL5291721, “A preclinical secondary pharmacology resource illuminates target-adverse drug reaction associations of marketed drugs” (Nat Commun, 2023) one finds AC50 data, which are given here for 22 compounds.

Among the targets are D(1A) dopamine receptor (Homo sapiens, UniProt P21728); Glucagon receptor (Homo sapiens, UniProt P47871); Estrogen receptor beta (Homo sapiens, UniProt Q92731).
Experiment [1] deals with Gamma-aminobutyric acid receptor subunit alpha-1/alpha-2/beta-2/gamma-2 (Homo sapiens, UniProt P14867+P18507+P47869+P47870). Type of experiment: functional, cell-based.
Chain of Gamma-aminobutyric acid receptor subunit alpha-1/alpha-2/beta-2/gamma-2 (P14867 whole entry): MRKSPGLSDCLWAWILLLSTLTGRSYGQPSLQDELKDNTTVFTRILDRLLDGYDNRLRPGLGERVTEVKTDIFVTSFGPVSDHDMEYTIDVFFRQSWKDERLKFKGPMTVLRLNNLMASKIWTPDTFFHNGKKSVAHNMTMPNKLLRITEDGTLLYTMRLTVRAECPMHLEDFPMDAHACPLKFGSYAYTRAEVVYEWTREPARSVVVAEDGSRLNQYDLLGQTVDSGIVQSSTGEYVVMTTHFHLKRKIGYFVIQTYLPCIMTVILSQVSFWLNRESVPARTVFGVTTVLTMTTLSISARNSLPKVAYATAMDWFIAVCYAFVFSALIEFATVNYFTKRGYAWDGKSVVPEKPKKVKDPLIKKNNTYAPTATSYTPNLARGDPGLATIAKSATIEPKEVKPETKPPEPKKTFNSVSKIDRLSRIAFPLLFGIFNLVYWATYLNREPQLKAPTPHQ
Chain of Gamma-aminobutyric acid receptor subunit alpha-1/alpha-2/beta-2/gamma-2 (P47870 whole entry): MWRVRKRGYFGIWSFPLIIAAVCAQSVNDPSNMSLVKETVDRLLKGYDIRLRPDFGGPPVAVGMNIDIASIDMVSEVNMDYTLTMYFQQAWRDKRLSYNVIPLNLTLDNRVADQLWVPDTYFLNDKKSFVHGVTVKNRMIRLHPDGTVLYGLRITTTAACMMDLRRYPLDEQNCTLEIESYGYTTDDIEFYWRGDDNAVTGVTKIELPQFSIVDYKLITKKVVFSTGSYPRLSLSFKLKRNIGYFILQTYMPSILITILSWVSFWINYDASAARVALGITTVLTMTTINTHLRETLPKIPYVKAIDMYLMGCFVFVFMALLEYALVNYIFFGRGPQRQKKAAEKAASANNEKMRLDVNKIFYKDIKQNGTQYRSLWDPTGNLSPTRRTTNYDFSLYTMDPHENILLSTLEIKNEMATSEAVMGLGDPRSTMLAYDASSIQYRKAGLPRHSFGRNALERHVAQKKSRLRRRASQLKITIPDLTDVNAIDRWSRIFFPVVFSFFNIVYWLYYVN
Chain of Gamma-aminobutyric acid receptor subunit alpha-1/alpha-2/beta-2/gamma-2 (P18507 whole entry): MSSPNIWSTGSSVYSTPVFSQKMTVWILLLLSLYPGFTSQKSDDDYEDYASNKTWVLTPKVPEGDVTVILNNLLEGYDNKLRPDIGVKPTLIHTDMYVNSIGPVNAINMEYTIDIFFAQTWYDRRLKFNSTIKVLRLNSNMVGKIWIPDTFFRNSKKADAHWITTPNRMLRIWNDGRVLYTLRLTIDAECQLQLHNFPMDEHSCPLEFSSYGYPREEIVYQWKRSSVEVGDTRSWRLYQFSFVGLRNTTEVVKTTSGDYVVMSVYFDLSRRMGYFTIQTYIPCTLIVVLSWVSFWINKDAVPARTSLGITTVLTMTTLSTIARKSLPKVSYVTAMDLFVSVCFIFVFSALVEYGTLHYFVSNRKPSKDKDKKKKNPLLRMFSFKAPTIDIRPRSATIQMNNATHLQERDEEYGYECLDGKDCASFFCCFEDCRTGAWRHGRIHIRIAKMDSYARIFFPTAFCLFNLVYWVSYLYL
Chain of Gamma-aminobutyric acid receptor subunit alpha-1/alpha-2/beta-2/gamma-2 (P47869 whole entry): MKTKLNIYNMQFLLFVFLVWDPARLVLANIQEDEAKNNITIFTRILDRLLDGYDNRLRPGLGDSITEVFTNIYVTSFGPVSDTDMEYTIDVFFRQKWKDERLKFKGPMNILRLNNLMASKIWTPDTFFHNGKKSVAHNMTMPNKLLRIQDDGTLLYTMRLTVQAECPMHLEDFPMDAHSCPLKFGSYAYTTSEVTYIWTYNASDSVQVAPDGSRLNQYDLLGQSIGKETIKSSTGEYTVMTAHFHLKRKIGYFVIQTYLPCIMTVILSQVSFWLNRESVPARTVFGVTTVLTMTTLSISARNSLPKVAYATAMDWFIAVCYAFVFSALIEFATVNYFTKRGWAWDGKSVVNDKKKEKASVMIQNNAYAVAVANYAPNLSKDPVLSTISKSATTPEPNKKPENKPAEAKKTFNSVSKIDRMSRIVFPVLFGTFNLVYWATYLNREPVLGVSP
Experiment [2] concerns the target T1, Gastric inhibitory polypeptide receptor (Homo sapiens, UniProt P48546).
T1 sequence (P48546 whole entry): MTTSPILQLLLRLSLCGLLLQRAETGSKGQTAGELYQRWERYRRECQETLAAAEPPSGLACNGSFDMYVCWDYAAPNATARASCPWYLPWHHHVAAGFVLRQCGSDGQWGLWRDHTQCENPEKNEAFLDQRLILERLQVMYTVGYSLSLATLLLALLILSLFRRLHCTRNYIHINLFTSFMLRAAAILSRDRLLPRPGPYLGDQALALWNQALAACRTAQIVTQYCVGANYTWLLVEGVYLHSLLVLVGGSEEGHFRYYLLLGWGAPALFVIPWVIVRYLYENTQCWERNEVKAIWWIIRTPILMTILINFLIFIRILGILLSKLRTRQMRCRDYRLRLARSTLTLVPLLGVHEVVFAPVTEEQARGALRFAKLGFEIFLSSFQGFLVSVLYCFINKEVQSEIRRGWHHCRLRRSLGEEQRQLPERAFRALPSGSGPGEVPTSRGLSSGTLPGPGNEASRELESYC

In experiment [3] the target is T2, Neuropeptide Y receptor type 2 (Homo sapiens, UniProt P49146).
T2 sequence (P49146 whole entry): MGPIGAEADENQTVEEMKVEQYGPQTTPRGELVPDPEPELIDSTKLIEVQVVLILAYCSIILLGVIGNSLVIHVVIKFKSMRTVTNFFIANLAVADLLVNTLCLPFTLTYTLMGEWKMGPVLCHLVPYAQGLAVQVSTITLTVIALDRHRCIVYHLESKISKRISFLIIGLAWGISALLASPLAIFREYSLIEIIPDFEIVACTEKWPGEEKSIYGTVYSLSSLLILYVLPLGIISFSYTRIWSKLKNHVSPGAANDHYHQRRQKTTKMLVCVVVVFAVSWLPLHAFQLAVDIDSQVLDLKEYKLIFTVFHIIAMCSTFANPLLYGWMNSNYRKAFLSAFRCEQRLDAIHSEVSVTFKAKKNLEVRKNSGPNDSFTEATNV

For experiment [4], the target named is T3, Corticotropin-releasing factor receptor 2 (Homo sapiens, UniProt Q13324).
T3 sequence (Q13324 whole entry): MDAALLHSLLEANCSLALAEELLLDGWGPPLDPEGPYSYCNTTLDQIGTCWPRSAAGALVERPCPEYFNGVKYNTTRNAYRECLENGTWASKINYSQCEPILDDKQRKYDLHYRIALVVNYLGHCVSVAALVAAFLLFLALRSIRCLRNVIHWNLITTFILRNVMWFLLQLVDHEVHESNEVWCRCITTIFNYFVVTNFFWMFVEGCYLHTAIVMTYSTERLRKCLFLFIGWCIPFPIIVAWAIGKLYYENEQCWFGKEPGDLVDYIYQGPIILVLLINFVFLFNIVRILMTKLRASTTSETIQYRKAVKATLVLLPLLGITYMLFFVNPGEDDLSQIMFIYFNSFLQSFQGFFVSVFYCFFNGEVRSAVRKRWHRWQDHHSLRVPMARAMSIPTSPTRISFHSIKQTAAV

Experiment [5] deals with T4, Corticotropin-releasing factor receptor 1 (Homo sapiens, UniProt P34998).
T4 sequence (P34998 whole entry): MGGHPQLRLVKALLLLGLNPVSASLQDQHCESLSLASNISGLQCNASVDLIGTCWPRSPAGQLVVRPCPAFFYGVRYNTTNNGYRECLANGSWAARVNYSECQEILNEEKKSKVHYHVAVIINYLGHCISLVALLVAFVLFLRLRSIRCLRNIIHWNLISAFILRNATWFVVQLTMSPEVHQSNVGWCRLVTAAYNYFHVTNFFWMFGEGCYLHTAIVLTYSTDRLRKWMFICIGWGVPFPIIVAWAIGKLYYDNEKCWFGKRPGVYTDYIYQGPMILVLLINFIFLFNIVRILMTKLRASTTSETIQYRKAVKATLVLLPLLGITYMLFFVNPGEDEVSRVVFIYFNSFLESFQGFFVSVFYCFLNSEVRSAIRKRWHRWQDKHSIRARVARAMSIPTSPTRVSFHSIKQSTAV

Experiment [6] addresses T5, Muscarinic acetylcholine receptor M2 (Homo sapiens, UniProt P08172).
T5 sequence (P08172 whole entry): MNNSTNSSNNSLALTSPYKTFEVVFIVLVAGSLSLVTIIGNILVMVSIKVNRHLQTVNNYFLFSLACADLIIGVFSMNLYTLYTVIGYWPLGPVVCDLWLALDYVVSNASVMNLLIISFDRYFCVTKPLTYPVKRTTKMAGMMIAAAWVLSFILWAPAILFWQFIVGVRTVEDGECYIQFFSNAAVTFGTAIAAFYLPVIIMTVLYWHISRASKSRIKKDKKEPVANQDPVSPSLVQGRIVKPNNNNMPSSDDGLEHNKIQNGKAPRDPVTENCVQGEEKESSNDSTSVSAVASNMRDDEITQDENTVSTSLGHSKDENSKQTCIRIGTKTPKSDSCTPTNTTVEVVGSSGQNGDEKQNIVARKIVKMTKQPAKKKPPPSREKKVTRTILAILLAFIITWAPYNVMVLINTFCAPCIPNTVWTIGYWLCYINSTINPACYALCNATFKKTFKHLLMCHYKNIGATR

For another experiment, the target named is T6, D(4) dopamine receptor (Homo sapiens, UniProt P21917).
T6 sequence (P21917 whole entry): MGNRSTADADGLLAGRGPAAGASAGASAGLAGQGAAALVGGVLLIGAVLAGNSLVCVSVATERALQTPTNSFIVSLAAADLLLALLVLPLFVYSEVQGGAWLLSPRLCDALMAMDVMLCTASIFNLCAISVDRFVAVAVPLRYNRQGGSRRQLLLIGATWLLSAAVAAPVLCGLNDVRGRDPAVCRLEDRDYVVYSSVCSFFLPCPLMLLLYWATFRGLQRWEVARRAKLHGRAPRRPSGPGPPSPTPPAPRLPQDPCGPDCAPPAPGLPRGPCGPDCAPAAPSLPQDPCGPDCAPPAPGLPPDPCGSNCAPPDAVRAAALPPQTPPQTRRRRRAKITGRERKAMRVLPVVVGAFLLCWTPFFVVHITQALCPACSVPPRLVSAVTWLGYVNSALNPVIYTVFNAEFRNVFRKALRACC

Experiment [7] has as its target Sodium channel protein type 5 subunit alpha (Homo sapiens, UniProt Q14524). Type of experiment: functional, cell-based.
Also: assay procedure not described here.

Chain of Sodium channel protein type 5 subunit alpha (Q14524 whole entry): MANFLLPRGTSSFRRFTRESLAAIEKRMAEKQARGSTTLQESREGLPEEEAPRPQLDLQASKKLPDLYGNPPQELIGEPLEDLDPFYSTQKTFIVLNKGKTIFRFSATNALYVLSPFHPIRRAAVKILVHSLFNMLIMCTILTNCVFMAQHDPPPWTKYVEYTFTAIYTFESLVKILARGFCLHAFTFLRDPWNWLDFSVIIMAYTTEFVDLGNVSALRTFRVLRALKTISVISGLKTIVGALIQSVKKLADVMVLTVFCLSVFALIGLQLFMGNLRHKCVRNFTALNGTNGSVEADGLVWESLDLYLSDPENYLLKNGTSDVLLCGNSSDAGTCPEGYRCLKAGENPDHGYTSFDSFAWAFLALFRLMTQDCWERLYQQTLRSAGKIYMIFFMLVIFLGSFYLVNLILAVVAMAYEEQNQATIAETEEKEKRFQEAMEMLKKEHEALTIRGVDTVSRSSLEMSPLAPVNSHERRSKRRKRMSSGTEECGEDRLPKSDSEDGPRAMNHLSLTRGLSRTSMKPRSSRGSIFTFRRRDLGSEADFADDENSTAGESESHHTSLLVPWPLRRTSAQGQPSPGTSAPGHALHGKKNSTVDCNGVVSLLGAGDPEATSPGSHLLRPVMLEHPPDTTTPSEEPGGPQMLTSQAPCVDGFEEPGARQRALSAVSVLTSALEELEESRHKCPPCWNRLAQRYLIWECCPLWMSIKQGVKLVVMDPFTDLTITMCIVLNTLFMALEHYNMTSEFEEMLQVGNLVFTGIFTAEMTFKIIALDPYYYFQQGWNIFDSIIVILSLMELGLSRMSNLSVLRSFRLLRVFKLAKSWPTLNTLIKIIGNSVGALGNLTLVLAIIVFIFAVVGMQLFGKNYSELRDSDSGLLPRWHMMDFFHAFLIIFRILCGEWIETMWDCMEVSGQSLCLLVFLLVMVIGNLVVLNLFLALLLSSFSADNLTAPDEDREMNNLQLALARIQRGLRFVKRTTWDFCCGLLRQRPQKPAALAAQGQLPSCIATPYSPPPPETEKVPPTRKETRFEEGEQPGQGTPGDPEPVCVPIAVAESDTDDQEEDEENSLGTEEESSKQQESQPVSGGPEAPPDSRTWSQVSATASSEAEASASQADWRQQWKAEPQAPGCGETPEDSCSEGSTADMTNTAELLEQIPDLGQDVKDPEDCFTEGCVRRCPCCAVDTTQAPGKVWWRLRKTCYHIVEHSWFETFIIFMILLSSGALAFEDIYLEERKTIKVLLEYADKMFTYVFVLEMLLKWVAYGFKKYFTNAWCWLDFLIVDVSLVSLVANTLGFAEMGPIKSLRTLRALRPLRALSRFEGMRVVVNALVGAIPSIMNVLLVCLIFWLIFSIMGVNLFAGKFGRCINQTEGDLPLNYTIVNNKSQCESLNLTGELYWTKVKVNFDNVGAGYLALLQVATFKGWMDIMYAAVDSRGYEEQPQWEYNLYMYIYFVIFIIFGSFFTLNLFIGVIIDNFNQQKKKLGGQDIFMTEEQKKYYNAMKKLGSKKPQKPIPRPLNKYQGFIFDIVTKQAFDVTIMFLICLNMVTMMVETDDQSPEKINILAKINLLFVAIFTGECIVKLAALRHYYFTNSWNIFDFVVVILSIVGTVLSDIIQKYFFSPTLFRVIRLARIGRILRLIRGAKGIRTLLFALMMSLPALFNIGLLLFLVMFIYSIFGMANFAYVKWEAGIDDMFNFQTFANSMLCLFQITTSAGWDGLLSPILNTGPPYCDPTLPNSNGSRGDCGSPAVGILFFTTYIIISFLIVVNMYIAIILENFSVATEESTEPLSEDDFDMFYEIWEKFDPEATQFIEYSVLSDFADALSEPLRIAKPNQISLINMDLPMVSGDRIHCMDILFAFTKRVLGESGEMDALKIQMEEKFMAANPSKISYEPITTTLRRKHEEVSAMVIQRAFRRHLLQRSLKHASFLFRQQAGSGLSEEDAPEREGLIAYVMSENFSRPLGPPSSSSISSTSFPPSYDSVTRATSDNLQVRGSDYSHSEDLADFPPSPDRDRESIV
Chain of D(1A) dopamine receptor (P21728 whole entry): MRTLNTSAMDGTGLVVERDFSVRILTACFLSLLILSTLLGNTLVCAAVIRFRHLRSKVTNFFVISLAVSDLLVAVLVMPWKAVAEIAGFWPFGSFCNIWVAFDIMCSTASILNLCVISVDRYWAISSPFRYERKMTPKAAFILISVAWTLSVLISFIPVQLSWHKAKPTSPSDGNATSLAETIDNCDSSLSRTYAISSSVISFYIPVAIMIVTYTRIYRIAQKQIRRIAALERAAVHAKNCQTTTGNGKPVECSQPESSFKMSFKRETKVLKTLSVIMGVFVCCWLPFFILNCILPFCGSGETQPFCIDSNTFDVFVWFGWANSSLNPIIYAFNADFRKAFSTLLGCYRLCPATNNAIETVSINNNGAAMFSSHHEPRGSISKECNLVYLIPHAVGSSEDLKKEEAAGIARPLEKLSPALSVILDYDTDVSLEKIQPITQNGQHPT
Chain of Estrogen receptor beta (Q92731 whole entry): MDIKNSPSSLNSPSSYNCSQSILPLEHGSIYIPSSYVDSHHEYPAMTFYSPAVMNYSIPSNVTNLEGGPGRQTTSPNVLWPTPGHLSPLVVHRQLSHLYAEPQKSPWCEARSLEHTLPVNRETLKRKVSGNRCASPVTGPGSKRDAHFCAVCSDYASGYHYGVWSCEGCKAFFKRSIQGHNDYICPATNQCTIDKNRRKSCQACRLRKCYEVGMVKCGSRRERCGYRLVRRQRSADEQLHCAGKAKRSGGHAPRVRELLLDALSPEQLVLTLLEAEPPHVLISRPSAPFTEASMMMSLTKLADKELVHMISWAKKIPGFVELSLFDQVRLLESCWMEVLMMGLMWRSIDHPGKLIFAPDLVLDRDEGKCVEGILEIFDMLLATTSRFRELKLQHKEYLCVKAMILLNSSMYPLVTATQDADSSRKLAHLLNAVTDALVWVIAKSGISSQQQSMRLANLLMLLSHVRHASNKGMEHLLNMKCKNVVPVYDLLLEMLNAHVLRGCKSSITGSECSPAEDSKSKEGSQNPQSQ

One may read the AC50 as the concentration giving half of the maximal activity seen. The low end stands for greater potency, the high end for weaker potency. Take `COc1cc(C(=O)OCc2cccc(COC(=O)c3cc(OC)c(OC)c(OC)c3)n2)cc(OC)c1OC` [PIROZADIL]: in [1], the AC50 was more than 30 µM.

`CCC(NC(C)C)C(O)c1ccc(O)c2[nH]c(=O)ccc12` (centres undefined) [PROCATEROL]: the AC50 at D(1A) dopamine receptor is more than 30 µM.

Turning to `O=c1c(O)c(-c2ccc(O)c(O)c2)oc2cc(O)cc(O)c12` [QUERCETIN], the AC50 (in experiment [2]; on Glucagon receptor; in experiment [3]; in [4]; in [5]; on Estrogen receptor beta) was more than 30 µM in each case. For the same compound, the AC50 (on D(1A) dopamine receptor; in experiment [6]) was more than 10 µM in each case.

`CCOC(=O)C(C)(C)Oc1ccc(Cl)cc1` [CLOFIBRATE]: the AC50 (in experiment [2]; on Glucagon receptor; in experiment [3]; in experiment [4]; in [5]; at Estrogen receptor beta) was more than 30 µM throughout. Moreover, the AC50 (on D(1A) dopamine receptor; in experiment [6]) was more than 10 µM in each case.

`CCC(=O)O[C@](Cc1ccccc1)(c1ccccc1)[C@H](C)CN(C)C` [PROPOXYPHENE]: the AC50 in experiment [2] is more than 30 µM; at Glucagon receptor it was more than 30 µM; in [3], more than 30 µM; in [4] it was more than 30 µM; in experiment [5], more than 30 µM; at D(4) dopamine receptor, more than 10 µM. Also, the AC50 on Estrogen receptor beta was more than 30 µM; at D(1A) dopamine receptor, more than 10 µM; in experiment [6] it was more than 10 µM.

Turning to `c1ccc(C2(N3CCCCC3)CCCCC2)cc1` [PHENCYCLIDINE], in experiment [1], the AC50 is more than 30 µM.

In experiment [1], `O=C(NCCO[N+](=O)[O-])c1cccnc1` [NICORANDIL] showed an AC50 of more than 30 µM.

Consider `CO[C@H]1C[C@H](O[C@H]2CC[C@@]3(C)[C@H](CC[C@@H]4[C@@H]3CC[C@]3(C)[C@@H](C5=CC(=O)OC5)[C@@H](OC(C)=O)C[C@]43O)C2)O[C@@H](C)[C@@H]1O` [OLEANDRIN], for which the AC50 in experiment [1] is more than 30 µM.

As to `O=C1Nc2ccc(Cl)cc2C(c2ccccc2Cl)=NC1O` (centres undefined) [LORAZEPAM], the AC50 in [2] was more than 30 µM; at Glucagon receptor it was more than 30 µM; in [3], more than 30 µM; in experiment [4], more than 30 µM; in [5] it was more than 30 µM; at D(4) dopamine receptor it was more than 10 µM. Further, the AC50 on Estrogen receptor beta is more than 30 µM; on D(1A) dopamine receptor it was more than 10 µM; in experiment [6] it was more than 10 µM.

Turning to `CO/N=C(\C(=O)N[C@@H]1C(=O)N2C(C(=O)O)=C(CSc3nc(=O)c(=O)[nH]n3C)CS[C@H]12)c1csc(N)n1` [CEFTRIAXONE], the AC50 is more than 50 µM in experiment [7] and more than 30 µM in experiment [1].

As for `CCCCCCCC(=O)CC[C@@H]1[C@@H](C/C=C\CCCC(=O)OC(C)C)[C@@H](O)C[C@H]1O` [UNOPROSTONE ISOPROPYL], the AC50 in experiment [7] stood at 27 µM.

In the case of `Cc1ccnc2c1NC(=O)c1cccnc1N2C1CC1` [NEVIRAPINE], the AC50 in experiment [2] was more than 30 µM; on Glucagon receptor it was more than 30 µM; in experiment [3], more than 30 µM; in experiment [4], more than 30 µM; in [5], more than 30 µM; at D(4) dopamine receptor it was more than 10 µM. Also, the AC50 at Estrogen receptor beta is more than 30 µM; at D(1A) dopamine receptor, more than 10 µM; in [6] it was more than 10 µM.

Compound `C[N+]12CCC(CC1)C(OC(=O)C(O)(c1ccccc1)c1ccccc1)C2` (centres undefined) had an AC50 in [6] of 0.0032 µM.

For the compound `O=c1[nH]c2ccccc2n1CCCN1CCN(C(c2ccccc2)c2ccccc2)CC1` [OXATOMIDE], the AC50 in experiment [1] was more than 30 µM.

`CC(C)NC[C@H](O)COc1ccc(CC(N)=O)cc1` [ESATENOLOL]: the AC50 in experiment [2] was more than 30 µM; at Glucagon receptor it was more than 30 µM; in experiment [3], more than 30 µM; in [4] it was more than 30 µM; in experiment [5], more than 30 µM; at D(4) dopamine receptor it was more than 10 µM.

Consider `NNC(=O)c1ccncc1` [ISONIAZID], for which the AC50 in experiment [2] was more than 30 µM; at Glucagon receptor, more than 30 µM; in [3], more than 30 µM; in experiment [4], more than 30 µM; in experiment [5], more than 30 µM; at D(4) dopamine receptor, more than 10 µM. The AC50 on Estrogen receptor beta was more than 30 µM; on D(1A) dopamine receptor, more than 10 µM.

For the compound `CCN1CCCC1CNC(=O)c1cc(S(=O)(=O)CC)ccc1OC` (centres undefined) [SULTOPRIDE], the AC50 in experiment [1] is more than 30 µM.

For `CCOC(=O)[C@@H](N)Cc1ccc(-c2cc(O[C@H](c3ccc(Cl)cc3-n3ccc(C)n3)C(F)(F)F)nc(N)n2)cc1` [TELOTRISTAT ETHYL], the AC50 in [7] was more than 1 µM; in [1], more than 30 µM.

Consider `COc1ccc(CN2CCN(C(c3ccc(F)cc3)c3ccc(F)cc3)CC2)c(OC)c1OC` [LOMERIZINE], for which the AC50 in experiment [7] was 16 µM.

Consider `COc1cc(N)c(Cl)cc1C(=O)NC1CCN(CCCOc2ccc(F)cc2)CC1OC` (centres undefined) [CISAPRIDE], for which the AC50 in experiment [7] was more than 50 µM; in experiment [2], more than 30 µM; on Glucagon receptor, more than 30 µM; in experiment [3] it was more than 30 µM; in [4], more than 30 µM; in experiment [5], more than 30 µM. In addition, the AC50 (on D(1A) dopamine receptor; in experiment [6]) was more than 10 µM throughout.

For `COc1cc2[nH]c(C)c(CCN3CCN(c4ccccc4)CC3)c2cc1OC` [OXYPERTINE], in [1], the AC50 was more than 30 µM.

As to `CCCCOc1ccc(C(=O)CCN2CCCCC2)cc1` [DYCLONINE], the AC50 in experiment [2] is more than 30 µM; at Glucagon receptor it was more than 30 µM; in experiment [3], more than 30 µM; in experiment [4], more than 30 µM; in [5], more than 30 µM; on D(4) dopamine receptor, 4.11 µM. The AC50 on Estrogen receptor beta is more than 30 µM; on D(1A) dopamine receptor, more than 10 µM; in experiment [6] it was 2.81 µM.
